In patent publication US11584763B2, “Chromenopyridine derivatives as phosphatidylinositol phosphate kinase inhibitors” (HIBERCELL, INC., priority 2017, dated 2023):

What was measured:
PIP4K2B = molecular target: T1, PIP4K2B (Homo sapiens, UniProt P78356); assay: Trans-FI P kinase assay PIP4K2B (PIP4KtypeIIB inhibition assay); type: biochemical; details: compounds listed under IC50 bin headings; 100 uM GTP; read-out: Trans-FI P kinase assays: PIP4K2B IC50
T1 construct: made in house; host or cells: E. coli
T1 sequence (P78356 1-416): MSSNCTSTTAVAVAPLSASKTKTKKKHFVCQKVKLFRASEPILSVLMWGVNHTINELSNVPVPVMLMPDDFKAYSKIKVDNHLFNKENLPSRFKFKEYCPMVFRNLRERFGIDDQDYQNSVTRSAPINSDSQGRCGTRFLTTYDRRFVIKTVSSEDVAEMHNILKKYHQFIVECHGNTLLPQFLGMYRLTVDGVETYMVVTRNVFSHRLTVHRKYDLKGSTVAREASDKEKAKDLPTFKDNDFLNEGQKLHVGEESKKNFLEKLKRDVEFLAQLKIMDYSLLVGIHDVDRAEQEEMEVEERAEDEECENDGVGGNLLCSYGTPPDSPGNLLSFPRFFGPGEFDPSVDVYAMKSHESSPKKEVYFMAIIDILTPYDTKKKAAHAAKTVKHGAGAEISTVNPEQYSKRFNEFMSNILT
Description: GST tagged PIP4KtypeIIA and B enzymes were overexpressed in E. Coli and purified to >80% homogeneity. Phosphatidyl inositol-5-phosphate (PI5P, Cat. #850152, Avanti Polar Lipids Inc.) was used as the lipid substrate and phosphatidyl ethanolamine (DOPE 18:1, Cat. #850725, Avanti Polar Lipids Inc.) was used as the carrier lipid for assays. Ultrapure ATP and GTP was purchased from Bellbrooke Labs. ADP Glo reagents were obtained from Promega. Transcreener FI reagent was obtained from Bellbrooke labs.
GST-tagged PIP4KtypeIIB (3.4 uL, 2.77 mg/mL) was diluted to 5 mL using HNE buffer to yield 5× enzyme stock (25 nM)
Lipid Preparation: In a 10 mL pyrex glass vial, 1 ug of PI5P and 1 ug of DOPE were suspended in 2.5 mL of HEPES buffer mix and 2.5 mL of H:E buffer. The contents were mixed and sonicated for 3 min to yield a translucent lipid stock.
Compound Preparation: Compounds were stored as 5 mM stocks in neat DMSO as room temperature in glass vials. 5 mM stocks were diluted to 2 mM and then serially diluted (3×) in neat DMSO in 96 well polypropylene plates. From the serially diluted stocks, 3 uL was delivered into 250 uL of 25% DMSO (in water) to generate 5× compound stocks. Typically, the highest compound conc. was 24 uM.
The assay volume was kept at 25 uL. To each well of the reaction plate, 10 uL of lipid stock (1:1 ratio PI5P:DOPE) was delivered. This was followed by the addition of 5 uL of compound in 25% DMSO. Then, to each well, 5 uL of 25 nM (5×) typeIIB enzyme was delivered. The contents were mixed well and incubated for 1 h at 27 C. After 1 h, reaction was initiated by adding 5 uL of 500 uM GTP and the contents were mixed well with a multi-channel pipetteman. The final concentration of the reagents are as follows: 50 mM HEPES, pH 7.3, 10 mM MgCl2, 20 mM NaCl, 0.01% v/v triton-X100, 5% DMSO, 100 uM GTP, 80 uM (2 ug) PI5P, 2 ug DOPE, and 5 nM PIP4KIIB Typically, the highest conc. of compounds was 4.8 uM and the lowest conc. was 0.
After 2 h, the reaction was quenched by adding 25 uL of transcreener FI reagent. The contents were incubated at RT for 1 h and the Fluorescence (Ex: 584 Em: 623) was read using Molecular Devices Paradigm plate reader. […] The blanks were averaged and subtracted from all other wells. Using a calibration curve, RFU was converted to uM GDP (product). IC50 was calculated by plotting the residual activity (expressed as % No inhibitor control) vs. log [Inh. conc.]

PIP4K 2A = molecular target: T2, PIP4K 2A (Homo sapiens, UniProt P48426); assay: ADP-glo kinase assay PIP4K 2A; type: biochemical; design: 4 nM PIP4K2A (full length protein, SignalChem); purchased SignalChem; details: compounds listed under IC50 bin headings
T2 sequence (P48426 1-406): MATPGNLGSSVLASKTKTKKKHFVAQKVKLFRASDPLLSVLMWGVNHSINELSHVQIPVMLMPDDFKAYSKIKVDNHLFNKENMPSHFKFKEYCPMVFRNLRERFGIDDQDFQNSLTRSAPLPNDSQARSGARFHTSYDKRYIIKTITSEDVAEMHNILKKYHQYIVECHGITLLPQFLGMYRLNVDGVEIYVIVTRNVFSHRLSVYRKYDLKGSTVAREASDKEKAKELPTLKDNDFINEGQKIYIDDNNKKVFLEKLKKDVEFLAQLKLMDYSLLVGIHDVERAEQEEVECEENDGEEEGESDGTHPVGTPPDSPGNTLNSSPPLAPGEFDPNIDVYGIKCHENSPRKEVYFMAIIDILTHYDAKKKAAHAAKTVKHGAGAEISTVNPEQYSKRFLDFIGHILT
Procedure: Dilution series of the compounds were prepared in DMSO at 100 times the final assay concentration (n1=n0/3 in 10 points). The compounds were further diluted to three times the assay concentration in assay buffer (20 mM MOPS pH 7.2, 25 mM magnesium chloride, 0.005% Tween 20). 6 μL of the diluted compounds were added to a 384 well assay plate followed by 9 μL of a mix consisting of 4 nM PIP4K2A (full length protein, SignalChem) and 100 μM PI(5)P diC8 (Tebu-Bio). Enzyme and compounds were pre-incubated at room temperature for 15 minutes.
Then 3 μL of a solution containing 60 μM ATP (Promega) in assay buffer was added to the wells containing compound and enzyme and mixing was performed by pipetting several times. The reaction was incubated at room temperature for 1 h. Then 18 μL of ADP-Glo™ Reagent (Promega) was added to stop the kinase reaction and deplete the unconsumed ATP, mixing was performed by pipetting several times. The plate was incubated at room temperature for 40 minutes before addition of 36 μL of Kinase Detection Reagent (Promega) to convert ADP to ATP and introduce luciferase and luciferin to detect ATP. The reaction was incubated at room temperature for 40 minutes before the luminescence was measured in a in a Victor 3V 1420 multilabel counter (Perkin Elmer).
Percent inhibition of the compounds as compared to dimethyl sulfoxide treated control samples was calculated. Compound concentration versus percent inhibition were fitted to generate IC50 values.

| IC50 (PIP4K2B) | IC50 (PIP4K 2A) | Compound |
| --- | --- | --- |
| 10 to 100 nM | 1 to 10 nM | CC(Cc1ccccc1)C(=O)Nc1cncc(Nc2cc3c(cn2)-c2ccc(N4CCCC4=O)cc2OC3C)c1 (centres unmarked) [Example 133, 2-methyl-N-(5-((5-methyl-8-(2-oxopyrrolidin-1-yl)-5H-chromeno[4,3-c]pyridin-3-yl)amino)pyridin-3-yl)-3-phenylpropanamide] |
| 10 to 100 nM | 1 to 10 nM | CC1Oc2cc(N3CCCC3=O)ccc2-c2cnc(Nc3cncc(NC(=O)C(O)Cc4ccccc4)c3)cc21 (centres unmarked) [Example 134, 2-hydroxy-N-(5-((5-methyl-8-(2-oxopyrrolidin-1-yl)-5H-chromeno[4,3-c]pyridin-3-yl)amino)pyridin-3-yl)-3-phenylpropanamide] |
| 10 to 100 nM | 1 to 10 nM | CC1Oc2cc(N3CCCC3=O)ccc2-c2cnc(Nc3cncc(NC(=O)C4CCCO4)c3)cc21 (centres unmarked) [Example 135, N-(5-((5-methyl-8-(2-oxopyrrolidin-1-yl)-5H-chromeno[4,3-c]pyridin-3-yl)amino)pyridin-3-yl)tetrahydrofuran-2-carboxamide] |
| 10 to 100 nM | 1 to 10 nM | CC1Oc2cc(N3CCCC3=O)ccc2-c2cnc(Nc3cncc(NC(=O)c4ccc5c(c4)OCO5)c3)cc21 (centres unmarked) [Example 136, N-(5-((5-methyl-8-(2-oxopyrrolidin-1-yl)-5H-chromeno[4,3-c]pyridin-3-yl)amino)pyridin-3-yl)benzo[d][1,3]dioxole-5-carboxamide] |
| 10 to 100 nM | 1 to 10 nM | CC1Oc2cc(N3CCCC3=O)ccc2-c2cnc(Nc3cncc(NC(=O)c4cccc5c4OCO5)c3)cc21 (centres unmarked) [Example 137, N-(5-((5-methyl-8-(2-oxopyrrolidin-1-yl)-5H-chromeno[4,3-c]pyridin-3-yl)amino)pyridin-3-yl)benzo[d][1,3]dioxole-4-carboxamide] |
| 10 to 100 nM | 10 to 100 nM | CC1Oc2cc(N3CCCC3=O)ccc2-c2cnc(Nc3cncc(NC(=O)C4Cc5ccccc5C4)c3)cc21 (centres unmarked) [Example 138, N-(5-((5-methyl-8-(2-oxopyrrolidin-1-yl)-5H-chromeno[4,3-c]pyridin-3-yl)amino)pyridin-3-yl)-2,3-dihydro-1H-indene-2-carboxamide] |
| 10 to 100 nM | 1 to 10 nM | CC1Oc2cc(N3CCCC3=O)ccc2-c2cnc(Nc3cncc(NC(=O)c4cn5ccccc5n4)c3)cc21 (centres unmarked) [Example 139, N-(5-((5-methyl-8-(2-oxopyrrolidin-1-yl)-5H-chromeno[4,3-c]pyridin-3-yl)amino)pyridin-3-yl)imidazo[1,2-a]pyridine-2-carboxamide] |
| 10 to 100 nM | 1 to 10 nM | CC1Oc2cc(N3CCCC3=O)ccc2-c2cnc(Nc3cncc(NC(=O)c4cc5ccccn5n4)c3)cc21 (centres unmarked) [Example 140, N-(5-((5-methyl-8-(2-oxopyrrolidin-1-yl)-5H-chromeno[4,3-c]pyridin-3-yl)amino)pyridin-3-yl)pyrazolo[1,5-a]pyridine-2-carboxamide] |
| 10 to 100 nM | 1 to 10 nM | CC1Oc2cc(N3CCCC3=O)ccc2-c2cnc(Nc3cncc(NC(=O)c4cc5ccccc5[nH]4)c3)cc21 (centres unmarked) [Example 141, N-(5-((5-methyl-8-(2-oxopyrrolidin-1-yl)-5H-chromeno[4,3-c]pyridin-3-yl)amino)pyridin-3-yl)-1H-indole-2-carboxamide] |
| 100 to 1000 nM | 10 to 100 nM | CC1Oc2cc(N3CCCC3=O)ccc2-c2cnc(Nc3cncc(NC(=O)C4Cc5ccccc5O4)c3)cc21 (centres unmarked) [Example 142, N-(5-((5-methyl-8-(2-oxopyrrolidin-1-yl)-5H-chromeno[4,3-c]pyridin-3-yl)amino)pyridin-3-yl)-2,3-dihydrobenzofuran-2-carboxamide] |
| 1 to 10 nM | ≤ 1 nM | CC1Oc2cc(N3CCCC3=O)ccc2-c2cnc(Nc3cncc(NC(=O)c4cnc5ccccn45)c3)cc21 (centres unmarked) [Example 143, N-(5-((5-methyl-8-(2-oxopyrrolidin-1-yl)-5H-chromeno[4,3-c]pyridin-3-yl)amino)pyridin-3-yl)imidazo[1,2-a]pyridine-3-carboxamide] |
| 1 to 10 nM | ≤ 1 nM | CC1Oc2cc(N3CCCC3=O)ccc2-c2cnc(Nc3cncc(NC(=O)c4cnn5ccccc45)c3)cc21 (centres unmarked) [Example 144, N-(5-((5-methyl-8-(2-oxopyrrolidin-1-yl)-5H-chromeno[4,3-c]pyridin-3-yl)amino)pyridin-3-yl)pyrazolo[1,5-a]pyridine-3-carboxamide] |
| 10 to 100 nM | 1 to 10 nM | CC1Oc2cc(N3CCCC3=O)ccc2-c2cnc(Nc3cncc(NC(=O)Cc4cnc5ccccn45)c3)cc21 (centres unmarked) [Example 145, 2-(imidazo[1,2-a]pyridin-3-yl)-N-(5-((5-methyl-8-(2-oxopyrrolidin-1-yl)-5H-chromeno[4,3-c]pyridin-3-yl)amino)pyridin-3-yl)acetamide] |
| 1 to 10 nM | ≤ 1 nM | CC1Oc2cc(N3CCCC3=O)ccc2-c2cnc(Nc3cncc(NC(=O)c4cccc5nccn45)c3)cc21 (centres unmarked) [Example 146, N-(5-((5-methyl-8-(2-oxopyrrolidin-1-yl)-5H-chromeno[4,3-c]pyridin-3-yl)amino)pyridin-3-yl)imidazo[1,2-a]pyridine-5-carboxamide] |
| 10 to 100 nM | 1 to 10 nM | CC1Oc2cc(N3CCCC3=O)ccc2-c2cnc(Nc3cncc(NC(=O)c4ccn5ccnc5c4)c3)cc21 (centres unmarked) [Example 147, N-(5-((5-methyl-8-(2-oxopyrrolidin-1-yl)-5H-chromeno[4,3-c]pyridin-3-yl)amino)pyridin-3-yl)imidazo[1,2-a]pyridine-7-carboxamide] |
| 1 to 10 nM | ≤ 1 nM | COC(=O)N1CCOc2ncc(Nc3cc4c(cn3)-c3cc(F)c(N5CCCC5=O)cc3OC4C)cc21 (centres unmarked) [Example 150, methyl 7-((9-fluoro-5-methyl-8-(2-oxopyrrolidin-1-yl)-5H-chromeno[4,3-c]pyridin-3-yl)amino)-2,3-dihydro-1H-pyrido[2,3-b][1,4]oxazine-1-carboxylate] |
